Test system: mouse femoral artery
Assay: Mouse femoral vessel diameter by ICG fluorescence angiography under topically applied acetylcholine
Conditions: mouse femoral artery in vivo
Method: In this example, a fluorescent dye (ICG) was injected into the vascular bed (via jugular cannulation in the mouse: via an infusion line in the langendorff perfused heart) and excited using radiation from a laser source (806 nm). The fluorescence (radiation) emitted by the dye (830 nm) was captured as a series of angiograms using a CCD camera. The camera relayed the angiograms to analog-to-digital conversion software running on a PC that digitized the angiograms. The digitized images were then analyzed both qualitatively (by viewing the monitor) and quantitatively. One example of quantitative evaluation that was undertaken was the determination of the mouse femoral artery diameter using software comprising a sub-pixel edge detection system running on the PC.
The foregoing fluorescence imaging technique was used on the mouse femoral artery in vivo. A more detailed explanation of each component of the apparatus, preparation of the animal, injection of ICG, and analytical method, are set forth in the following paragraphs.
The mouse was prepared by inducing anesthesia in an induction box using isoflurane (Ohmeda Pharmaceutical Products, Mississauga, ON, Canada) (4% in medical air, 4 L/min) and maintained by use of a facemask providing isoflurane at a rate of 1.5-2.0% in medical air (400 mL/min). During the experiment, the mouse was positioned on a thermostatted water blanket, with body temperature being monitored by a rectal temperature probe. To facilitate imaging of the vessels of interest, the thoracic, abdominal and inguinal areas of the mouse were shaved, the mouse positioned on its back, and the skin over the femoral vasculature was resected to expose the vasculature of interest. The jugular vein was cannulated using a piece of stretched PE10 tubing filled with saline containing 50 U heparin/mL.
After the mouse was prepared, a 10 μl bolus IV injection of ICG was administered, followed by an IV injection of 50 μl of saline solution. To prepare the bolus, 4 μg/ml of clinical grade ICG (CARDIO-GREEN™) was dissolved in sterile aqueous solvent within one hour of injection. All injections were administered via the cannula established in the jugular vein. The saline was used to flush the line and to ensure passage of an intact bolus through the femoral vasculature, producing a sharp wavefront.
Image analysis was performed using XCAP for Windows 95/98/NT version 1.0 (EPIX Inc., Buffalo Grove, Ill.). The image processing algorithm included the following steps.
1. Selection of vessels of interest. The anatomy of the vasculature varies between animals. Consequently, it was necessary to develop criteria for the selection of an area of interest. This process began with the positioning of the camera. The camera was positioned so that the field of view included the femoral artery and its branches. For the purposes of image analysis, the vessels of interest were the femoral artery and the branches that provided the highest resolution and the greatest degree of branching, usually tertiary or quaternary.
2. Calibration. The positioning of the camera with respect to the area being imaged varied with each animal, and it was therefore necessary to calibrate the camera for every image collected. A small diameter (320 μm) capillary tube (TSP320450; Polymicro Technologies, LLC, Phoenix, Ariz.) filled with ICG was used to calibrate the images. The image processing software includes a built-in calibration function that allows the specification of a set of pixel co-ordinates and the assignment of a user-defined value to the distance between these co-ordinates. The software's edge detector was used to determine the co-ordinates of the edges of the dye fluorescing in the capillary tube. The inner diameter of the capillary tube, in microns, was then assigned to the “length” of the distance between these points. Because this is a built-in feature of the software, all subsequent measurements in all frames of the image were stated in microns, rather than pixel units. […]

CC(=O)OCC[N+](C)(C)C [Acetylcholine, acetylcholine]
Vessel Diameter (microns) (Primary vessel, acetylcholine concentration 0.01 μM): 58.2 ± 1.3 microns
Vessel Diameter (microns) (Primary vessel, acetylcholine concentration 1.0 μM): 58.3 ± 1.5 microns
Vessel Diameter (microns) (Primary vessel, acetylcholine concentration 10.0 μM): 64.6 ± 1.5 microns
Vessel Diameter (microns) (Primary vessel, acetylcholine concentration .01 μM): 61.5 ± 1.7 microns
Vessel Diameter (microns) (Secondary vessel, acetylcholine concentration 0.01 μM): 67.0 ± 1.3 microns
Vessel Diameter (microns) (Secondary vessel, acetylcholine concentration 1.0 μM): 90.0 ± 1.8 microns
Vessel Diameter (microns) (Secondary vessel, acetylcholine concentration 10.0 μM): 75.0 ± 1.4 microns
Vessel Diameter (microns) (Secondary vessel, acetylcholine concentration .01 μM): 75.1 ± 1.2 microns
Vessel Diameter (microns) (Tertiary vessel, acetylcholine concentration 0.01 μM): 42.9 ± 0.6 microns
Vessel Diameter (microns) (Tertiary vessel, acetylcholine concentration 1.0 μM): 47.1 ± 1.2 microns
Vessel Diameter (microns) (Tertiary vessel, acetylcholine concentration 10.0 μM): 42.9 ± 0.8 microns
Vessel Diameter (microns) (Tertiary vessel, acetylcholine concentration .01 μM): 44.9 ± 0.6 microns
